Test results taken from PubChem BioAssay (NCI).
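96-well plates; 48 h exposure; 5 concentrations. Endpoints by linear interpolation between flanking doses. Not reached: highest tested concentration assigned. TGI: concentration producing complete growth inhibition.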

What was measured:
Assay in all cases: NCI-60 cell line screen, 48 h
786-0 renal = test system: 786-0 renal
A498 renal = test system: A498 renal
A549 NSCLC = test system: A549 NSCLC
ACHN renal = test system: ACHN renal
CAKI-1 renal = test system: CAKI-1 renal
CCRF-CEM leukemia = test system: CCRF-CEM leukemia
COLO 205 colon = test system: COLO 205 colon
DU-145 prostate = test system: DU-145 prostate
EKVX NSCLC = test system: EKVX NSCLC
HCC-2998 colon = test system: HCC-2998 colon
HCT-116 colon = test system: HCT-116 colon
HCT-15 colon = test system: HCT-15 colon
HOP-62 NSCLC = test system: HOP-62 NSCLC
HOP-92 NSCLC = test system: HOP-92 NSCLC
HS 578T breast = test system: HS 578T breast
HT29 colon = test system: HT29 colon
IGROV1 ovarian = test system: IGROV1 ovarian
KM12 colon = test system: KM12 colon
M14 melanoma = test system: M14 melanoma
MDA-N = test system: MDA-N
NCI-H226 lung = test system: NCI-H226 lung
NCI-H23 lung = test system: NCI-H23 lung
NCI-H460 lung = test system: NCI-H460 lung
NCI/ADR-RES ovarian = test system: NCI/ADR-RES ovarian
OVCAR-3 ovarian = test system: OVCAR-3 ovarian
OVCAR-4 ovarian = test system: OVCAR-4 ovarian
PC-3 prostate = test system: PC-3 prostate
SF-268 CNS = test system: SF-268 CNS
SF-295 CNS = test system: SF-295 CNS
SK-MEL-28 melanoma = test system: SK-MEL-28 melanoma
SK-MEL-5 melanoma = test system: SK-MEL-5 melanoma
SN12C renal = test system: SN12C renal
SNB-19 CNS = test system: SNB-19 CNS
SW-620 colon = test system: SW-620 colon
UACC-257 melanoma = test system: UACC-257 melanoma
UACC-62 melanoma = test system: UACC-62 melanoma
UO-31 renal = test system: UO-31 renal
HL-60(TB) leukemia = test system: HL-60(TB) leukemia
K-562 leukemia = test system: K-562 leukemia
LOX IMVI melanoma = test system: LOX IMVI melanoma
MALME-3M melanoma = test system: MALME-3M melanoma
MCF7 breast = test system: MCF7 breast
MDA-MB-231 breast = test system: MDA-MB-231 breast
MDA-MB-435 = test system: MDA-MB-435
MOLT-4 leukemia = test system: MOLT-4 leukemia
NCI-H522 lung = test system: NCI-H522 lung
OVCAR-5 ovarian = test system: OVCAR-5 ovarian
OVCAR-8 ovarian = test system: OVCAR-8 ovarian
RPMI-8226 leukemia = test system: RPMI-8226 leukemia
RXF 393 renal = test system: RXF 393 renal
SF-539 CNS = test system: SF-539 CNS
SK-MEL-2 melanoma = test system: SK-MEL-2 melanoma
SK-OV-3 ovarian = test system: SK-OV-3 ovarian
SNB-75 CNS = test system: SNB-75 CNS
T-47D breast = test system: T-47D breast
TK-10 renal = test system: TK-10 renal
U251 CNS = test system: U251 CNS

CN(CCCNC(=O)c1cn(C)c2c1ccc1ccccc12)CCCNC(=O)c1cn(C)c2c1ccc1ccccc12
TGI (786-0 renal): 4.5 µM | TGI (A498 renal): 47.9 µM | TGI (A549 NSCLC): 2.62 µM | TGI (ACHN renal): 3.33 µM | TGI (CAKI-1 renal): 2.87 µM | TGI (CCRF-CEM leukemia): > 100 µM | TGI (COLO 205 colon): 5.07 µM | TGI (DU-145 prostate): 3.08 µM | TGI (EKVX NSCLC): 3.42 µM | TGI (HCC-2998 colon): 2.7 µM | TGI (HCT-116 colon): 3.12 µM | TGI (HCT-15 colon): 3.38 µM | TGI (HOP-62 NSCLC): 2.95 µM | TGI (HOP-92 NSCLC): 3.57 µM | TGI (HS 578T breast): 3.19 µM | TGI (HT29 colon): 2.89 µM | TGI (IGROV1 ovarian): 2.31 µM | TGI (KM12 colon): 2.96 µM | TGI (M14 melanoma): 2.92 µM | TGI (MDA-N): 2.76 µM | TGI (NCI-H226 lung): 12 µM | TGI (NCI-H23 lung): 2.95 µM | TGI (NCI-H460 lung): 2.83 µM | TGI (NCI/ADR-RES ovarian): 3.34 µM | TGI (OVCAR-3 ovarian): 2.84 µM | TGI (OVCAR-4 ovarian): 27.3 µM | TGI (PC-3 prostate): 2.83 µM | TGI (SF-268 CNS): 3.05 µM | TGI (SF-295 CNS): 16.8 µM | TGI (SK-MEL-28 melanoma): 3.67 µM | TGI (SK-MEL-5 melanoma): 3.33 µM | TGI (SN12C renal): 2.71 µM | TGI (SNB-19 CNS): 5.65 µM | TGI (SW-620 colon): 6.41 µM | TGI (UACC-257 melanoma): 3.06 µM | TGI (UACC-62 melanoma): 4.68 µM | TGI (UO-31 renal): 2.75 µM

[O-][N+]1=C(c2ccccc2)/C(=C2/C(c3ccccc3)=[N+]([O-])c3ccccc32)Cc2ccccc21
TGI (786-0 renal): 34.9 µM | TGI (A498 renal): 21.1 µM | TGI (A549 NSCLC): 35.2 µM | TGI (ACHN renal): 50.6 µM | TGI (CAKI-1 renal): 47.4 µM | TGI (CCRF-CEM leukemia): 60.1 µM | TGI (COLO 205 colon): 34.7 µM | TGI (DU-145 prostate): 63.8 µM | TGI (EKVX NSCLC): 48.5 µM | TGI (HCC-2998 colon): 29.5 µM | TGI (HCT-116 colon): 31.4 µM | TGI (HCT-15 colon): 36.7 µM | TGI (HL-60(TB) leukemia): > 100 µM | TGI (HOP-62 NSCLC): > 100 µM | TGI (HOP-92 NSCLC): 32.9 µM | TGI (HT29 colon): 35.9 µM | TGI (IGROV1 ovarian): 35.2 µM | TGI (K-562 leukemia): 58.1 µM | TGI (KM12 colon): 33.9 µM | TGI (LOX IMVI melanoma): 34.5 µM | TGI (M14 melanoma): 53.7 µM | TGI (MALME-3M melanoma): 40.8 µM | TGI (MCF7 breast): > 100 µM | TGI (MDA-MB-231 breast): 33.5 µM | TGI (MDA-MB-435): 55.1 µM | TGI (MDA-N): 31.7 µM | TGI (MOLT-4 leukemia): 54.3 µM | TGI (NCI-H226 lung): 42.2 µM | TGI (NCI-H23 lung): 34.7 µM | TGI (NCI-H522 lung): 30.5 µM | TGI (NCI/ADR-RES ovarian): 34.4 µM | TGI (OVCAR-3 ovarian): 38.1 µM | TGI (OVCAR-4 ovarian): 38.9 µM | TGI (OVCAR-5 ovarian): > 100 µM | TGI (OVCAR-8 ovarian): 35.6 µM | TGI (PC-3 prostate): 34.9 µM | TGI (RPMI-8226 leukemia): 52 µM | TGI (RXF 393 renal): 53.1 µM | TGI (SF-295 CNS): 42.9 µM | TGI (SF-539 CNS): 56.4 µM | TGI (SK-MEL-2 melanoma): 36.6 µM | TGI (SK-MEL-28 melanoma): 46.2 µM | TGI (SK-MEL-5 melanoma): 35.4 µM | TGI (SK-OV-3 ovarian): > 100 µM | TGI (SN12C renal): 32.4 µM | TGI (SNB-19 CNS): 44.3 µM | TGI (SNB-75 CNS): 47.1 µM | TGI (SW-620 colon): 59.2 µM | TGI (T-47D breast): 45.8 µM | TGI (TK-10 renal): 49.2 µM | TGI (U251 CNS): 38.7 µM | TGI (UACC-257 melanoma): 40.9 µM | TGI (UACC-62 melanoma): 28.7 µM | TGI (UO-31 renal): 28.5 µM
